Assay results: ChEMBL document CHEMBL5370530, “Discovery of 2,5-diaminopyrimidine derivatives as the first series of selective monomeric degraders of B-lymphoid tyrosine kinase” (Eur J Med Chem, 2023)
Calls of active or inactive are those of the source. The calls are words filed in the database; no cut-off is given here.

Tests used:
[1] = test system: Ramos; experiment: (§1) Downregulation of BLK level in human Ramos cells at 0.3 uM measured after 12 hrs by Western blot analysis; format: functional
[2] = test system: DOHH-2; experiment: Growth inhibition of human DOHH-2 cells measured after 72 hrs by cell titer glo luminescent cell viability assay; format: functional
[3] = test system: SUD4; experiment: Growth inhibition of human SU-DHL-4 cells measured after 72 hrs by cell titer glo luminescent cell viability assay; format: functional
[4] = test system: SU-DHL-6; experiment: Growth inhibition of human SU-DHL-6 cells measured after 72 hrs by cell titer glo luminescent cell viability assay; format: functional
[5] = molecular target: Tyrosine-protein kinase SYK (Homo sapiens, UniProt P43405); experiment: Inhibition of SYK phosphorylation in human Ramos cells incubated for 1 hr; format: cell-based
[6] = molecular target: Tyrosine-protein kinase BTK (Homo sapiens, UniProt Q06187); experiment: Inhibition of full length N-terminal GST tagged BTK (2 to 659 end residues) (unknown origin) expressed in Sf21insect cells by time resolved fluorescence based assay; set-up: species or system Sf21
Chain of Tyrosine-protein kinase BTK (Q06187 whole entry): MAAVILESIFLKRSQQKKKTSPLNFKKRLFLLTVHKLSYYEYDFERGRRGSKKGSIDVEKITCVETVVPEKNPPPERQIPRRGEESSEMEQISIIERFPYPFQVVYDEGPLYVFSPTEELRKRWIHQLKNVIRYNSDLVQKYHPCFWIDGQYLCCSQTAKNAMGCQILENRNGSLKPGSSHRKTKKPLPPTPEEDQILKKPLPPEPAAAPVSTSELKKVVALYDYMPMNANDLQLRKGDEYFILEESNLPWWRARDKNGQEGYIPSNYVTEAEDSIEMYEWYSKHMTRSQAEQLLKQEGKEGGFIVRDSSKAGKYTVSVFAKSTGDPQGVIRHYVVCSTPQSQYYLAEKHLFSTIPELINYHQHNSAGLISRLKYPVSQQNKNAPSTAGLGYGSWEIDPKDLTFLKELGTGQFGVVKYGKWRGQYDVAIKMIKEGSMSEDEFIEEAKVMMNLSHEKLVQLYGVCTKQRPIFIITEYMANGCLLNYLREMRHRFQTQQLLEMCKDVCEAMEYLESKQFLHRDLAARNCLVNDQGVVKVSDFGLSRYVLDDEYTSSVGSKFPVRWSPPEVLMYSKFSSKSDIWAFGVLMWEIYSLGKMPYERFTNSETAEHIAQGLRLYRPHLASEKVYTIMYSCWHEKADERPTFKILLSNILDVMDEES

[7] = molecular target: Tyrosine-protein kinase Lck (Homo sapiens) (UniProt P06239); experiment: Induction of degradation of LCK in human Jurkat cells assessed as maximum degradation at > 1 uM incubated for 12 hrs by Western blot analysis relative to control; format: cell-based
Chain of Tyrosine-protein kinase Lck (Homo sapiens) (P06239 2-509 limits assumed): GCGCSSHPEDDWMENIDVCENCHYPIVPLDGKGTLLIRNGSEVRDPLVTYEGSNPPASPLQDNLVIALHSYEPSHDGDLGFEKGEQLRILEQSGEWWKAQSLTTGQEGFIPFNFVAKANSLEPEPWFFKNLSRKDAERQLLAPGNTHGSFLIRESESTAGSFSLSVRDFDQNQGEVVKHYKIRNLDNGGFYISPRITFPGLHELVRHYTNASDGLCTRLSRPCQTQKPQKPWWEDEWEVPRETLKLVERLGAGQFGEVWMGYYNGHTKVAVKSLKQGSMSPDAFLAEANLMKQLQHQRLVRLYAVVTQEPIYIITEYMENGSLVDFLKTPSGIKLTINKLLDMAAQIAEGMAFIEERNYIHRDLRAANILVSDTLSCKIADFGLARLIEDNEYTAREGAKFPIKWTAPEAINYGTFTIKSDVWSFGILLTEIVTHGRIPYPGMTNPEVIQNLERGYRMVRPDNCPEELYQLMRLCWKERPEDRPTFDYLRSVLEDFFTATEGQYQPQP

[8] = test system: DOHH-2; experiment: Antiproliferative activity against human DOHH-2 cells at 0.1 to 0.3 uM measured after 72 hrs by cell titer glo luminescent cell viability assay; format: functional, cell-based; settings: dose 0.1-0.3 µM
[9] = test system: HBL1; experiment: Antiproliferative activity against human HBL1 cells at 0.1 to 0.3 uM measured after 72 hrs by cell titer glo luminescent cell viability assay; format: functional, cell-based; settings: dose 0.1-0.3 µM
[10] = test system: SUD4; experiment: Antiproliferative activity against human SU-DHL-4 cells at 0.1 to 0.3 uM measured after 72 hrs by cell titer glo luminescent cell viability assay; format: functional, cell-based; settings: dose 0.1-0.3 µM
[11] = test system: Pfeiffer; experiment: Antiproliferative activity against human Pfeiffer cells at 0.1 to 0.3 uM measured after 72 hrs by cell titer glo luminescent cell viability assay; format: functional, cell-based; settings: dose 0.1-0.3 µM
[12] = test system: SU-DHL-6; experiment: Antiproliferative activity against human SU-DHL-6 cells at 0.1 to 0.3 uM measured after 72 hrs by cell titer glo luminescent cell viability assay; format: functional, cell-based; settings: dose 0.1-0.3 µM
[13] = test system: RS4-11; experiment: Antiproliferative activity against human RS4-11 cells at 0.1 to 0.3 uM measured after 72 hrs by cell titer glo luminescent cell viability assay; format: functional, cell-based; settings: dose 0.1-0.3 µM
[14] = test system: OPM-2; experiment: Antiproliferative activity against human OPM-2 cells at 0.1 to 0.3 uM measured after 72 hrs by cell titer glo luminescent cell viability assay; format: functional, cell-based; settings: dose 0.1-0.3 µM
[15] = test system: OCI-Ly7; experiment: Antiproliferative activity against human OCILY7 cells at 0.1 to 0.3 uM measured after 72 hrs by cell titer glo luminescent cell viability assay; format: functional, cell-based; settings: dose 0.1-0.3 µM
[16] = test system: Raji; experiment: Antiproliferative activity against human Raji cells at 0.1 to 0.3 uM measured after 72 hrs by cell titer glo luminescent cell viability assay; format: functional, cell-based; settings: dose 0.1-0.3 µM
[17] = test system: Ramos; experiment: Antiproliferative activity against human Ramos cells at 0.1 to 0.3 uM measured after 72 hrs by cell titer glo luminescent cell viability assay; format: functional, cell-based; settings: dose 0.1-0.3 µM
[18] = test system: NAMALVA; experiment: Antiproliferative activity against human NAMALVA cells at 0.1 to 0.3 uM measured after 72 hrs by cell titer glo luminescent cell viability assay; format: functional, cell-based; settings: dose 0.1-0.3 µM
[19] = test system: TMD8; experiment: Antiproliferative activity against human TMD8 cells at 0.1 to 0.3 uM measured after 72 hrs by cell titer glo luminescent cell viability assay; format: functional, cell-based; settings: dose 0.1-0.3 µM
[20] = test system: RPMI-8226; experiment: Antiproliferative activity against human RPMI-8226 cells at 0.1 to 0.3 uM measured after 72 hrs by cell titer glo luminescent cell viability assay; format: functional, cell-based; settings: dose 0.1-0.3 µM
[21] = test system: CCRF-CEM; experiment: Antiproliferative activity against human CCRF-CEM cells at 0.1 to 0.3 uM measured after 72 hrs by cell titer glo luminescent cell viability assay; format: functional, cell-based; settings: dose 0.1-0.3 µM
[22] = test system: 6T-CEM; experiment: Antiproliferative activity against human 6T-CEM cells at 0.1 to 0.3 uM measured after 72 hrs by cell titer glo luminescent cell viability assay; format: functional, cell-based; settings: dose 0.1-0.3 µM
[23] = test system: MOLT-4; experiment: Antiproliferative activity against human MOLT-4 cells at 0.1 to 0.3 uM measured after 72 hrs by cell titer glo luminescent cell viability assay; format: functional, cell-based; settings: dose 0.1-0.3 µM
[24] = test system: Jurkat; experiment: Antiproliferative activity against human Jurkat cells at 0.1 to 0.3 uM measured after 72 hrs by cell titer glo luminescent cell viability assay; format: functional, cell-based; settings: dose 0.1-0.3 µM
[25] = test system: A-431; experiment: Antiproliferative activity against human A-431 cells at 0.1 to 0.3 uM measured after 72 hrs by cell titer glo luminescent cell viability assay; format: functional, cell-based; settings: dose 0.1-0.3 µM
[26] = test system: PC-9; experiment: Antiproliferative activity against human PC-9 cells at 0.1 to 0.3 uM measured after 72 hrs by cell titer glo luminescent cell viability assay; format: functional, cell-based; settings: dose 0.1-0.3 µM
[27] = test system: A549; experiment: Antiproliferative activity against human A549 cells at 0.1 to 0.3 uM measured after 72 hrs by cell titer glo luminescent cell viability assay; format: functional, cell-based; settings: dose 0.1-0.3 µM
[28] = test system: A-375; experiment: Antiproliferative activity against human A-375 cells at 0.1 to 0.3 uM measured after 72 hrs by cell titer glo luminescent cell viability assay; format: functional, cell-based; settings: dose 0.1-0.3 µM
[29] = test system: DOHH-2; experiment: Downregulation of CDK2 level in human DOHH-2 cells at 1 uM measured after 48 hrs by Western blot analysis; format: functional, cell-based
[30] = test system: SU-DHL-6; experiment: Downregulation of CDK2 level in human SU-DHL-6 cells at 1 uM measured after 48 hrs by Western blot analysis; format: functional, cell-based
[31] = as §1; format: functional

## Cc1ccc(-c2nn(C(C)(C)C)c3ncnc(N)c23)cc1
[1]
  Activity: inactive
[2]
  GI50: 3700 nM
[3]
  GI50: > 10 µM
[4]
  GI50: 4.7 µM

## C=CC(=O)N1CCC(c2cccc(Nc3ncc(NC(=O)c4cc(NC(=O)c5ccc6cnccc6c5)ccc4C)cn3)c2)CC1
[1]
  Activity: Active

## Cc1ccc(NC(=O)c2ccc3ccccc3c2)cc1C(=O)Nc1cnc(Nc2cccc(N)c2)nc1
[5]
  IC50: < 100 nM

## Cc1ccc(NC(=O)c2ccc(-c3cccc(C(F)(F)F)c3)cc2)cc1C(=O)Nc1cnc(Nc2cccc(N)c2)nc1
[6]
  IC50: 2560 nM
[5]
  IC50: 2900 nM
[7]
  Emax: < 50%
[8]
  Activity: Active
[9]
  Activity: inactive
[10]
  Activity: Active
[11]
  Activity: Active
[12]
  Activity: Active
[13]
  Activity: inactive
[14]
  Activity: inactive
[15]
  Activity: inactive
[16]
  Activity: inactive
[17]
  Activity: inactive
[18]
  Activity: inactive
[19]
  Activity: inactive
[20]
  Activity: inactive
[21]
  Activity: inactive
[22]
  Activity: inactive
[23]
  Activity: inactive
[24]
  Activity: inactive
[25]
  Activity: inactive
[26]
  Activity: inactive
[27]
  Activity: inactive
[28]
  Activity: inactive
[2]
  GI50: 130 nM
[3]
  GI50: 0.18 µM
[4]
  GI50: 0.36 µM
[29]
  Activity: Active
[30]
  Activity: Active

## Cc1ccc(NC(=O)c2ccc(Oc3ccccc3)cc2)cc1C(=O)Nc1cnc(Nc2cccc(N)c2)nc1
[6]
  IC50: 991 nM
[5]
  IC50: 2730 nM
[7]
  Emax: < 50%

## Cc1ccc(NC(=O)C[C@@]23C[C@@H]4C[C@@H](C[C@@](O)(C4)C2)C3)cc1C(=O)Nc1cnc(Nc2cccc(N)c2)nc1
[6]
  IC50: 855 nM

## C=CC(=O)Nc1cccc(Nc2nc(Nc3ccc(OCCOC)cc3)ncc2F)c1
[1]
  Activity: Active

## Cc1ccc(NC(=O)CC23C[C@H]4C[C@@H](C2)C[C@@H](C3)C4)cc1C(=O)Nc1cnc(Nc2cccc(N)c2)nc1
[6]
  IC50: 338 nM

## CN1CCN(CCOc2cc(OC3CCOCC3)c3c(Nc4c(Cl)ccc5c4OCO5)ncnc3c2)CC1
[1]
  Activity: Active

## Cc1nc(Nc2ncc(C(=O)Nc3c(C)cccc3Cl)s2)cc(N2CCN(CCO)CC2)n1
[1]
  Activity: Active

## Cc1ccc(NC(=O)Cc2ccc(-c3ccccc3)cc2)cc1C(=O)Nc1cnc(Nc2cccc(N)c2)nc1
[6]
  IC50: 5810 nM
[7]
  Emax: < 50%
[2]
  GI50: 2500 nM
[3]
  GI50: 8.9 µM
[4]
  GI50: 6.2 µM

## C=CC(=O)NCCC(=O)c1cccc(Nc2ncc(NC(=O)c3cc(NC(=O)c4cccc(-c5ccc(F)cc5)c4)ccc3C)cn2)c1
[31]
  Activity: >85%

## CCC(=O)Nc1cccc(Nc2ncc(NC(=O)c3cc(NC(=O)c4cccc(C(F)(F)F)c4)ccc3C)cn2)c1
[31]
  Activity: >85%
[5]
  IC50: < 100 nM

## C=CC(=O)N1CCC[C@@H](n2nc(-c3ccc(Oc4ccccc4)cc3)c3c(N)ncnc32)C1
[1]
  Activity: inactive

## Cc1ccc(NC(=O)c2ccc3cnccc3c2)cc1C(=O)Nc1cnc(Nc2cccc(C3CCN(C(=O)/C=C/CN(C)C)CC3)c2)nc1
[1]
  Activity: Active
